For orientation: EC50 means the concentration that produces a half-maximal response.

For one test, the target named is T1, S1P3 (Homo sapiens, UniProt Q99500).
T1 construct: expressed in transfected cells
The test can be described thus: GTPγS binding assay, S1P3. To be noted: CHO cells expressing S1P3. The format is biochemical. The source says: Human S1P1 (GenBank™ accession number M31210) and S1P3 (GenBank™ accession number X83864) cDNA containing the myc sequence in front to the human S1P1 and S1P3 sequences are inserted in the pcDNA 3.1 vector. The vectors are sequenced to completion to confirm the correctness of the construct. The human S1P2 (GI: 4090955, TREMBL: 0195136) is cloned by a PCR based method. Lung cDNA (marathon cDNA) is obtained (BD Biosciences Chontech, Palo Alto, Calif. 94303, USA). Following oligonucleotides are used for the PCR reaction: forward primer CACCATGGGCAGCTTGTACTCGGAGTACCT GM CCC CAA CM GGT CCA G (1 to 45, GenBank™ accession number AF034780) and reverse primer 5′-GATTCAGACCACCGTGTTGCCCTCCAG (1062 to 1039, GenBank™ accession number AF034780), the initiation of the translation (ATG) and the stop codon are underlined. […] The amplified product of around 1100 bp is analyzed by standard agarose gel-electrophoresis. […]
Membrane proteins are prepared from wild type CHO-K1 and the CHO cell clones expressing human S1P4. […] The protein concentration is determined using the Bio Rad Protein Assay and human IgG as standard. […]

Another test deals with CHO. The test is described as follows: GTPγS binding assay, membranes of wild type CHO cells. The format is biochemical. The protocol:
Membrane proteins are prepared from wild type CHO-K1 and the CHO cell clones expressing human S1P4. To obtain 10-30 mg of membrane proteins, cells are grown in one large culture dish (500 cm^2) per cell clone to 80 and 90% confluence. The culture medium is removed and the cells are harvested on ice from the dish, by scraping in 20 ml cold HEPES 10 mM (pH 7.5) supplemented with 0.1% fatty acid-free bovine serum albumin (BSA) and protease inhibitors cocktail (one tablet per 50 ml, Roche Diagnostics, Rotkreuz). […] The protein concentration is determined using the Bio Rad Protein Assay and human IgG as standard. […]
The selection of the clones to be tested in the GTPγS assay is based on the real time PCR assays. […] The plates are then centrifuged for 10 minutes at 2000 rpm and counted with a TopCount instrument (Packard). […]
The compounds mentioned in this application are tested for specificity, e.g. the activity they have in the parental cell line prior transformation with the S1P4 cDNA and for selectivity on CHO cells lines transformed with the S1P1, S1P2, S1P3, and S1P5. […] For example, S1P4 specific and selective compounds may have an EC50 (apparent EC50) measured at S1P4 that is 10×, preferably 100× lower that that measured in wild type CHO cells or In cell expressing any of the other four S1P receptors.

A value given as a limit tells only on which side of the number the result lay.

T1 sequence (Q99500 whole entry): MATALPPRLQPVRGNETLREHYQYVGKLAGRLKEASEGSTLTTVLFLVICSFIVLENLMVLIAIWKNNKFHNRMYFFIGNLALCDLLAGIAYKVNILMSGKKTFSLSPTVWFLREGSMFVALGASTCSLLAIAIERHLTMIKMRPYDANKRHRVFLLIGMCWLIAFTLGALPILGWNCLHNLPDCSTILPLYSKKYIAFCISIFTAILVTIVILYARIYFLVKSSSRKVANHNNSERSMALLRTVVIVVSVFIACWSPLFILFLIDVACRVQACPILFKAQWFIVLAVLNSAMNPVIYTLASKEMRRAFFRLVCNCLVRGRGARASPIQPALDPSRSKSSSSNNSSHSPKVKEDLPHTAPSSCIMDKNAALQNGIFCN

Consider `NC(CNC(=O)c1cc2c(-c3ccccc3Cc3ccccc3)cccc2[nH]1)C(=O)O` (centres unmarked) [Example 2], for which the concentration giving a half-maximal response (EC50) on S1P3 and in the test on CHO was above 10 µM each time.

For the origin of these results see patent US7754896B2, “Indol-alanine derivatives as selective S1P4-agonists” (Novartis AG, priority 2004, dated 2010).
